In patent US6287834A, “Characterization and use of an isolated uridine diphospho-glucuronosyltransferase” (Endorecherche, Inc., priority 1999, dated 2001):

Tests used:
UGT2B17 [1] = molecular target: T1, UGT2B17 (Homo sapiens, UniProt O75795); experiment: Second glucuronidation assay to determine the amount of enzyme activity (glucuronide formation); type: biochemical; conditions: for identified as major endogenous substrates of UGT2B17: 3α and 17β hydroxyandrogens; for Glucuronide Formation (pmol/min/mg protein): HK293-UGT2B17 cell homogenate, 6 μM [14C]UDPGA and 494 μM unlabelled UDPGA, 15 minutes at 30° C.
T1 construct: cell homogenate
T1 sequence (O75795 24-530): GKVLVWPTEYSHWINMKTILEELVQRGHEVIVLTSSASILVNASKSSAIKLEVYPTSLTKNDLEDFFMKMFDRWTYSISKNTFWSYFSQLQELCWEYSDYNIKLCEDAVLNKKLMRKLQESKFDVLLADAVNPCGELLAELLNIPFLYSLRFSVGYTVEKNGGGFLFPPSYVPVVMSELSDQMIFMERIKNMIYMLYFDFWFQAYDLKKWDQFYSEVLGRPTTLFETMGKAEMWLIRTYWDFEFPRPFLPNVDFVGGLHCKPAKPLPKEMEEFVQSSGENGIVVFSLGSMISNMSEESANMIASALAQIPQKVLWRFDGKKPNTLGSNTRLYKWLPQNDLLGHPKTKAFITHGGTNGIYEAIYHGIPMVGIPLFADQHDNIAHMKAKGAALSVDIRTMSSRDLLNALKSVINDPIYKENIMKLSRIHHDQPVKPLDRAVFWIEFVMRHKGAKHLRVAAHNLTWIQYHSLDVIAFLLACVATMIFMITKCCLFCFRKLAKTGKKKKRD
Experimental: Stable Expression of UGT2B17. Human kidney 293 cells were grown in Dubelcco's modified Eagle's medium containing 4.5 g/l glucose, 10 mM HEPES, 110 μg/ml sodium pyruvate, 100 IU of penicillin/ml, 100 μg/ml of streptomycin and 10% fetal bovine serum (FBS) in a humidified incubator, with an atmosphere of 5% CO2, at 37° C. 5 μg of pBK-CMV-UGT2B17 was used to transfect HK293 cells using Lipofectin and following the manufacturer's instructions (Gibco BRL: Burlington, Canada). Forty-eight hours after transfection, stable transfectants were selected in a media containing 800 μg/ml G418.
Glucuronidation Assay Using Cell Homogenates. HK293 cells expressing UGT2B17 were suspended in a Tris buffered saline containing 0.5 mM DTT and were homogenized using a Brinkman polytron. Enzyme assays were performed using [^14 C] UDP-glucuronic acid ([…]), 500 μM of the various aglycones and 150 μg of protein from cell homogenates in 50 mM Tris-HCl (pH 7.5), 10 mM MgCl2, 100 μg/ml phosphatidylcholine and 8.5 mM saccharolactone in a final volume of 100 μl. The enzyme assays were terminated by adding 100 μl of methanol, and the tubes were centrifuged at 14,000 g for 1 minute to remove the precipitated proteins. 100 μl of the aqueous phase was applied onto thin layer chromatography (TLC) plates (0.25 mm thick silica gel, 60 F254 S) (EM Science, Gibbstown, N.J.) and then was chromatographed in a solvent of toluene:methanol:acetic acid in the proportion of 7:3:1. The TLC plates were exposed for four days and the extent of glucuronidation was measured by Phosphorimager (Molecular Dynamics).
In the second assay, the substrate was exposed to […]

UGT2B17 [2] = molecular target: T1, UGT2B17; experiment: Kinetic analysis of UGT2B17 specificity (Lineweaver-Burk plots, FIGS. 4A and 4B); type: biochemical
Experimental: to FIGS. 4A and 4B are Lineweaver-Burk plots of ADT and DHT, and 3α-DIOL and testosterone (TESTO), respectively; and
A kinetic analysis was also performed to further characterize the specificity of UGT2B17 for ADT, DHT, 3α-DIOL and testosterone.

[3] = tested on: androgen response element reporter in LNCaP cells; experiment: Androgen response element reporter construct in LNCaP cells transfected with UGT2B17; type: cell-based, human
Description: Reducing androgen activity with UGT2B17. LNCaP cells were transfected with UGT2B17 in the presence of a reporter construct controlled by an androgen response element so as the expression of the reporter gene is indicative of androgenic activity.

[4] = substrate: O=C(O)[C@H]1O[C@H](OP(=O)(O)OP(=O)(O)OC[C@H]2O[C@@H](n3ccc(=O)[nH]c3=O)[C@H](O)[C@@H]2O)[C@H](O)[C@@H](O)[C@@H]1O; experiment: cells, lysate or membranes; conditions: other: 30° C., reaction linear for 30 minutes, pH 7.5

| Molecule | identified as major endogenous substrates of UGT2B17 (UGT2B17 [1]) | Glucuronide Formation (pmol/min/mg protein) (UGT2B17 [1]) | further results |
| --- | --- | --- | --- |
| C[C@]12CC[C@H](O)C[C@@H]1CC[C@@H]1[C@@H]2CC[C@]2(C)[C@@H](O)CC[C@@H]12 [5α-Androstane-3β,17β-diol] | major endogenous substrates |  |  |
| C[C@]12CC[C@@H](O)C[C@H]1CC[C@@H]1[C@@H]2CC[C@]2(C)C(=O)CC[C@@H]12 [Etiocholanolone] |  | 13 pmol/min/mg protein |  |
| C[C@]12CC[C@@H](O)C[C@@H]1CC[C@@H]1[C@@H]2CC[C@]2(C)[C@@H](O)CC[C@@H]12 [5α-Androstane-3α,17β-diol] | major endogenous substrates | 15 pmol/min/mg protein | affinity of the enzyme based on Km values (UGT2B17 [2]): similar |
| C[C@]12CC[C@H]3[C@@H](CCC4=CC(=O)CC[C@@]43C)[C@@H]1CC[C@@H]2O [Testosterone] | major endogenous substrates | 9 pmol/min/mg protein | affinity of the enzyme based on Km values (UGT2B17 [2]): similar |
| C[C@H](O)[C@H]1CC[C@H]2[C@@H]3CC[C@H]4C[C@H](O)CC[C@]4(C)[C@H]3CC[C@]12C [5α-pregnane-3α,20α-diol] |  | 8 pmol/min/mg protein |  |
| C[C@]12CC[C@H]3[C@@H](CC=C4C[C@@H](O)CC[C@@]43C)[C@@H]1CC[C@@H]2O [Androst-5-ene-3β,17β-diol] | major endogenous substrates |  |  |
| C[C@]12CC[C@@H](O)C[C@@H]1CC[C@@H]1[C@@H]2[C@H](O)C[C@]2(C)[C@@H](O)CC[C@@H]12 [5α-Androstane-3α,11α,17β-triol] |  | 5 pmol/min/mg protein |  |
| Oc1cccc2ccccc12 [l-naphtol] |  | 7 pmol/min/mg protein |  |
| C=CCc1ccc(O)c(OC)c1 [Eugenol] |  | 38 pmol/min/mg protein |  |
| C[C@]12CC[C@@H](O)C[C@@H]1CC[C@@H]1[C@@H]2[C@@H](O)C[C@]2(C)[C@@H](O)CC[C@@H]12 [5α-Androstane-3α,11β,17β-triol] |  | 8 pmol/min/mg protein |  |
| C[C@]12CCC(=O)C[C@@H]1CC[C@@H]1[C@@H]2CC[C@]2(C)[C@@H](O)CC[C@@H]12 [Dihydrotestosterone] | major endogenous substrates | 14 pmol/min/mg protein | affinity of the enzyme based on Km values (UGT2B17 [2]): similar |
| C[C@]12CC[C@@H](O)C[C@H]1CC[C@@H]1[C@@H]2CC[C@]2(C)[C@@H](O)CC[C@@H]12 [5β-Androstane-3α,17β-diol] |  | 14 pmol/min/mg protein |  |
| C[C@]12CC[C@@H](O)C[C@H]1CC[C@@H]1[C@@H]2CC[C@]2(C)[C@@H](O)[C@H](O)C[C@@H]12 [5β-Androstane-3α,16α,17β-triol] |  | 11 pmol/min/mg protein |  |
| O=[N+]([O-])c1ccc(O)cc1 [p-nitrophenol] |  | 4 pmol/min/mg protein |  |
| C[C@]12CC[C@@H](O)C[C@@H]1CC[C@@H]1[C@@H]2CC[C@]2(C)C(=O)CC[C@@H]12 [Androsterone] | major endogenous substrates | 5 pmol/min/mg protein | affinity of the enzyme based on Km values (UGT2B17 [2]): similar |
| Oc1ccc(-c2ccc(O)cc2)cc1 [p,p' biphenyl] |  | 5 pmol/min/mg protein |  |
| Oc1ccccc1-c1ccccc1O [o,o' biphenyl] |  | 7 pmol/min/mg protein |  |
| uridine diphospho-glucuronosyltransferase 2B17 (protein) MSLKWMSVFLLMQLSCYFSSGSCGKVLVWPTEYSHWINMKTILEELVQRGHEVIVLTSSASILVNASKSSAIKLEVYPTSLTKNDLEDFFMKMFDRWTYSISKNTFWSYFSQLQELCWEYSDYNIKLCEDAVLNKKLMRKLQESKFDVLLADAVNPCGELLAELLNIPFLYSLRFSVGYTVEKNGGGFLFPPSYVPVVMSELSDQMIFMERIKNMIYMLYFDFWFQAYDLKKWDQFYSEVLGRPTTLFETMGKAEMWLIRTYWDFEFPRPFLPNVDFVGGLHCKPAKPLPKEMEEFVQSSGENGIVVFSLGSMISNMSEESANMIASALAQIPQKVLWRFDGKKPNTLGSNTRLYKWLPQNDLLGHPKTKAFITHGGTNGIYEAIYHGIPMVGIPLFADQHDNIAHMKAKGAALSVDIRTMSSRDLLNALKSVINDPIYKENIMKLSRIHHDQPVKPLDRAVFWIEFVMRHKGAKHLRVAAHNLTWIQYHSLDVIAFLLACVATMIFMITKCCLFCFRKLAKTGKKKKRD |  |  | expression of the reporter gene (indicative of androgenic activity) [3]: decreased expression of the reporter gene |
| UGT2B17 (Homo sapiens) (protein) GKVLVWPTEYSHWINMKTILEELVQRGHEVIVLTSSASILVNASKSSAIKLEVYPTSLTKNDLEDFFMKMFDRWTYSISKNTFWSYFSQLQELCWEYSDYNIKLCEDAVLNKKLMRKLQESKFDVLLADAVNPCGELLAELLNIPFLYSLRFSVGYTVEKNGGGFLFPPSYVPVVMSELSDQMIFMERIKNMIYMLYFDFWFQAYDLKKWDQFYSEVLGRPTTLFETMGKAEMWLIRTYWDFEFPRPFLPNVDFVGGLHCKPAKPLPKEMEEFVQSSGENGIVVFSLGSMISNMSEESANMIASALAQIPQKVLWRFDGKKPNTLGSNTRLYKWLPQNDLLGHPKTKAFITHGGTNGIYEAIYHGIPMVGIPLFADQHDNIAHMKAKGAALSVDIRTMSSRDLLNALKSVINDPIYKENIMKLSRIHHDQPVKPLDRAVFWIEFVMRHKGAKHLRVAAHNLTWIQYHSLDVIAFLLACVATMIFMITKCCLFCFRKLAKTGKKKKRD |  |  | Km [4]: 200 µM |
